Tests used:
MRSA strain MW2 = test: resistance assay, exposure to incrementally increasing concentrations; type: cell-based, Staphylococcus aureus; settings: concentration doubled daily from 1/32 to 4× MIC over 8 days
MSSA strain 8325 = test: as above; type: cell-based, Staphylococcus aureus; settings: MSSA 8325; concentration doubled daily from 1/32 to 4× MIC over 8 days

## C/C(=C\C(=O)OCCCCCCCCC(=O)O)C[C@@H]1OC[C@H](C[C@@H]2O[C@H]2[C@@H](C)[C@H](C)O)[C@@H](O)[C@H]1O [mupirocin, reference compound]
MRSA strain MW2
  development of resistance: developed resistance
MSSA strain 8325
  development of resistance: developed resistance

From patent publication US11111484B2, “Streptococcus bacteriophage lysins for detection and treatment of gram positive bacteria” (priority 2011, dated 2021)
